# Reference: US20260209260A1, “VECTORIZED NHC IRIDIUM(III) COMPLEXES AND USE THEREOF IN PHOTODYNAMIC THERAPY AND/OR DIAGNOSTIC” (CENTRE NATIONAL DE LA RECHERCHE SCIENTIFIQUE, priority 2022, published 2026)
# Where “and” joins values, the source holds several entries; their conditions need not be identical. Equal values may be shown once. Read-outs that look alike come from different tables or passages of the source.
# Columns and labels:
# Assay in all cases: Cell viability assay (MTT), dark and blue light
# Type in all cases: cell-based, Human
# [1] = test system: C4-2B prostate cancer cells (PSMA-positive); conditions: for Photosensitizing index (PI): dark vs blue light
# Summary of the method: (§1)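 Seeded cells attached overnight, were exposed to complexes for 8 h, received 10 min of 458 nm blue light (9.6 W LED array), then stayed in the dark until 72 h; parallel plates were kept dark throughout. MTT for 3 to 4 h, DMSO solubilization, absorbance at 570 nm.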
# [2] = test system: PC-3 prostate cancer cells (PSMA-negative); conditions: for Photosensitizing index (PI): PC3, dark vs blue light
# Summary of the method: as §1
# A549 lung cancer cells = conditions: for GI50: read-out: GI50; for Photosensitizing index (PI): A549, dark vs blue light
# Summary of the method: (§2)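 MTT read-out at 570 nm after DMSO solubilization of formazan, 3–4 h MTT at 37 °C, 5% CO2. Treatment lasted 72 h, either fully in the dark or with 10 min irradiation after 8 h of dark incubation. Final DMSO fixed at 0.1% (v/v).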
# [3] = test system: MiaPaCa2 pancreas cancer cells; conditions: for Photosensitizing index (PI): MiaPaCa2, dark vs blue light; for GI50: read-out: GI50
# Summary of the method: as §2
# MCF7 breast cancer cells = conditions: for Photosensitizing index (PI): MCF7, dark vs blue light; for GI50: read-out: GI50
# Summary of the method: as §1
# [4] = C4-2b, blue light, read-out: GI50
# [5] = in the dark, 72 h, read-out: GI50 C4-2b Dark
# [6] = 8 h in the dark, blue light 458 nm 10 min, then dark up to 72 h, read-out: GI50 PC-3 Blue
# [7] = PC3, blue light, read-out: GI50
# [8] = in the dark, 72 h, read-out: GI50 PC-3 Dark
Compound,"GI50 [1, 4] [µM]",Photosensitizing index (PI) ([1]; C4-2b),"GI50 ([1]; C4-2b, dark, read-out: GI50) [µM]",SI (vs NIH-3T3) C4-2b Blue ([1]; blue light 458 nm),"GI50 [1, 5] [µM]","GI50 [2, 6] [µM]","GI50 [2, 7] [µM]",Photosensitizing index (PI) [2],"GI50 ([2]; PC3, dark, read-out: GI50) [µM]","GI50 (A549 lung cancer cells; A549, blue light) [µM]","SI (vs MC3T3) (A549 lung cancer cells; A549, dark)",Photosensitizing index (PI) (A549 lung cancer cells),Photosensitizing index (PI) [3],"SI (vs NIH-3T3) ([3]; MiapaCa2, blue light)","SI (vs NIH-3T3) (MCF7 breast cancer cells; MCF7, blue light)","SI (vs MC3T3) (MCF7 breast cancer cells; MCF7, dark)","SI (vs NIH-3T3) (MCF7 breast cancer cells; MCF7, dark)",Photosensitizing index (PI) (MCF7 breast cancer cells),"GI50 (MCF7 breast cancer cells; MCF7, dark)","SI (vs NIH-3T3) ([2]; PC3, dark)",other results
F[P-](F)(F)(F)(F)F.O=C(O)CC[C@H](NC(=O)N[C@@H](CCCCNC(=O)CCn1cc[n+]2[c]1[Ir-3]13([c]4cccc5ccc6ccc[n+]1c6c45)([c]1cccc4ccc5ccc[n+]3c5c14)[n+]1ccccc1-2)C(=O)O)C(=O)O [III-i],2.69,5.5,14.8,20.7,14.8,8.7,8.72,6.6,57.2,–,–,–,–,–,–,–,–,–,–,–,"GI50 ([1]; 8 h in the dark, blue light 458 nm 10 min, then dark up to 72 h, read-out: GI50 C4-2b Blue): 2.7 µM; SI (vs NIH-3T3) C4-2b Dark ([1]; dark): >6.7; SI (vs MC3T3) PC-3 Blue ([2]; blue light 458 nm): 4.7; SI (vs MC3T3) PC-3 Dark ([2]; dark): 4.4; SI (vs NIH-3T3) PC-3 Dark ([2]; dark): >1.7; GI50 [2, 8]: 57.2 µM"
F[P-](F)(F)(F)(F)F.O=C(O)CC[C@H](NC(=O)N[C@@H](CCCCNC(=O)CCn1cc[n+]2[c]1[Ir-3]13([c]4ccccc4-c4sc5ccccc5[n+]41)([c]1ccccc1-c1sc4ccccc4[n+]13)[n+]1ccccc1-2)C(=O)O)C(=O)O [III-k],0.41,12.9,5.3,73.9,5.3,2.1,2.1,4.6,9.6,–,–,–,–,–,–,–,–,–,–,–,"SI (vs MC3T3) C4-2b Blue ([1]; blue light 458 nm): 83.3; SI (vs MC3T3) C4-2b Dark ([1]; dark): 17.9; SI (vs NIH-3T3) PC-3 Blue ([2]; blue light 458 nm): 14.3; SI (vs MC3T3) PC-3 Dark ([2]; dark): 9.9; GI50 [2, 8]: 9.8 µM"
F[P-](F)(F)(F)(F)F.O=C(NCCCn1cc[n+]2[c]1[Ir-3]13([c]4ccccc4-c4c5ccccc5cc[n+]41)([c]1ccccc1-c1c4ccccc4cc[n+]13)[n+]1ccccc1-2)[c-]1cccc1.[Fe+2].c1cc[cH-]c1 [IV-h],–,–,–,–,–,–,0.058,22.4,1.3,0.27,3.4,18.9,24.6,63.8,15.7,2.9,2.2,21.4,6 µM,10.2,"SI (vs MC3T3) ([3]; MiapaCa2, blue light): 86.2; SI (vs NIH-3T3) ([3]; MiapaCa2, dark): 7.8; GI50 ([3]; MiapaCa2, dark): 1.7 µM; SI (vs MC3T3) ([2]; PC3, blue light): 77.6"
F[P-](F)(F)(F)(F)F.O=C(NCCCn1cc[n+]2[c]1[Ir-3]13([c]4cccc5ccc6ccc[n+]1c6c45)([c]1cccc4ccc5ccc[n+]3c5c14)[n+]1ccccc1-2)[c-]1cccc1.[Fe+2].c1cc[cH-]c1 [IV-i],–,–,–,–,–,–,0.27,21.9,–,1,2.2,4.6,5.1,48.1,28.7,1.9,7.8,8.5,5.3 µM,7.0,"SI (vs NIH-3T3) (A549 lung cancer cells; A549, blue light): 17.8; GI50 (A549 lung cancer cells; A549, dark): 4.6 µM; GI50 ([3]; MiapaCa2, blue light): 0.37 µM; SI (vs MC3T3) ([2]; PC3, dark): 1.7"
F[P-](F)(F)(F)(F)F.O=C(NCCCn1cc[n+]2[c]1[Ir-3]13([c]4ccccc4-c4sc5ccccc5[n+]41)([c]1ccccc1-c1sc4ccccc4[n+]13)[n+]1ccccc1-2)[c-]1cccc1.[Fe+2].c1cc[cH-]c1 [IV-k],–,–,–,–,–,–,–,7.9,1.1,0.34,2.7,11.2,6.9,36.3,18.7,1.8,3.2,9.4,6.8 µM and 5.8 µM,17.3,"SI (vs MC3T3) (A549 lung cancer cells; A549, blue light): 15.0; SI (vs NIH-3T3) (A549 lung cancer cells; A549, blue light): 34.2; GI50 (A549 lung cancer cells; A549, dark): 3.8 µM; SI (vs MC3T3) ([3]; MiapaCa2, blue light): 15.9; GI50 ([3]; MiapaCa2, blue light): 0.32 µM; SI (vs NIH-3T3) ([3]; MiapaCa2, dark): 8.5; GI50 ([3]; MiapaCa2, dark): 2.2 µM; SI (vs MC3T3) (MCF7 breast cancer cells; MCF7, blue light): 8.2; GI50 (MCF7 breast cancer cells; MCF7, blue light): 0.62 µM; SI (vs MC3T3) ([2]; PC3, blue light): 37.0"
